Data taken from article PMC8545574, “Antioxidant, Anti-Inflammatory, and Antidiabetic Activities of Bioactive Compounds from the Fruits of Livistona chinensis Based on Network Pharmacology Prediction” (Oxidative Medicine and Cellular Longevity, 2021).
Read-outs that look alike come from different tables or passages of the source.

What was measured:
[1] = biological target: α-Glucosidase (from Baker's yeast); assay: α-Glucosidase inhibitory assay (p-NPG substrate); conditions: read-out: IC50 α-Glucosidase inhibitory effect; mean ± SD, n = 3
Protocol: The extract, fractions, and compounds were dissolved in 5% DMSO and then diluted with phosphate buffer. Briefly, 80 μL PBS, 20 μL of varying concentrations of sample solutions, and 20 μL α-glucosidase solution (1.3 U/mL) were mixed and incubated in 96-well plates at 37°C for 5 min. The reaction started when 20 μL p-nitrophenyl-α-D-glucopyranoside (2.5 mM) was added to the plate. The reaction mixture was incubated for 15 min at 37°C, and then, 80 μL Na2CO3 (0.2 M) was added to stop the reaction.

[2] = ABTS radical cation scavenging assay; type: biochemical; conditions: mean ± SD, n = 3
Protocol: The ABTS radical cation (ABTS·+) was prepared by reacting ABTS with potassium persulfate following the method previously described. The ABTS radical cation (ABTS·+) was prepared by mixing with 2.45 mM potassium persulfate and equal volumes of an ABTS solution (7 mM), and then, they were permitted to react in the darkness at room temperature for 12–16 h. Thereafter, the ABTS reagent was diluted with methyl alcohol until reaching an absorbance of 0.70 ± 0.02 units at 734 nm. In a 96-well microplate, ABTS reagent (190 μL in each well) and samples (10 μL in each well) were incubated at room temperature for 20 min. To determine the antioxidant capacity by the ABTS method, the experimental conditions and protocol were identical to those of the DPPH assay. The only difference was that the absorbance was measured at 734 nm.

[3] = system: LPS-stimulated NO release in RAW 264.7 cells; assay: Nitrite (Griess) assay of LPS-stimulated NO release; type: cell-based
Protocol: The level of NO production was tested by measuring the nitrite level in the culture medium with the Griess method. Cells were seeded at a density of 2 × 10^4 cells per well in 96-well plates. […] A microplate reader was employed for the optical density measurement at 570 nm.

[4] = DPPH free radical scavenging assay; type: biochemical; conditions: mean ± SD, n = 3
Protocol: The DPPH free radical scavenging assay was performed according to a previously reported method. A series of different concentrations of the tested samples and the positive control ascorbic acid were mixed with freshly prepared DPPH (0.2 mM) in a 96-well microplate with a total volume of 150 μL. After leaving the mixture to react in the dark for 30 min, its absorbance was determined at 517 nm. All of the wells with only samples were set as blanks to obtain an absorbance value, which was subtracted from the test sample readings. The percentage inhibition (%) for each sample was calculated by the following formula: (1) Inhibition %=Absblank−Abssamples/Absblank×100%, where Absblank and Abssamples correspond to the absorbance units (at 517 nm) of DPPH solutions incubated in the absence and presence of the tested samples.

PTP1B = biological target: T1, PTP1B (Homo sapiens, UniProt P18031); assay: PTP1B inhibitory assay (p-NPP substrate)
T1 sequence (P18031 1-321 limits assumed): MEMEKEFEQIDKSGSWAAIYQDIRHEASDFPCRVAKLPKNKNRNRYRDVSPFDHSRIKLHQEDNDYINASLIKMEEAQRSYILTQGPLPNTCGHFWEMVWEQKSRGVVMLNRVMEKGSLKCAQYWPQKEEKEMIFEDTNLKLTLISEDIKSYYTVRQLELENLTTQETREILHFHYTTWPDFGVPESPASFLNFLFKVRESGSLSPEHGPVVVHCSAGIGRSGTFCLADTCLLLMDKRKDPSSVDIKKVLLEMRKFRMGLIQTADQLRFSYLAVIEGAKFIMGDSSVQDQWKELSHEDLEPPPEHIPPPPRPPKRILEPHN
Protocol: PTP1B (10 μg/mL stock solution) was dissolved in 10 mM citrate buffer (pH 6.0), 1 mM dithiothreitol (DTT), and 1 mM N, N, N′, N′-ethylenediaminetetraacetate (EDTA). 20.0 μL PTP1B stock solution and 60 μL citrate buffer were added to each well of a 96-well plastic plate.

[5] = Mus musculus, RAW264.7, LPS (1 μg/mL)-stimulated RAW 264.7 cells, mean ± SD, n = 3, read-out: IC50 NO production anti-inflammatory effect

IC50 [2] [µM] | IC50 [3, 5] [µM] | IC50 [4] [µM] | Compound | IC50 [1] [µM] | IC50 (PTP1B) [µM] | IC50 ([3]; Mus musculus, RAW264.7, read-out: IC50 NO production anti-inflammatory effect) [µM] | IC50 ([3]; LPS (1 μg/mL)-stimulated RAW 264.7 cells, mean ± SD, n = 3, read-out: IC50 NO production anti-inflammatory effect) [µM]
41.98 ± 0.33 | 66.86 ± 0.51 | > 100 | COc1cc([C@@H]2OC[C@H]3C(=O)OC[C@H]32)ccc1O [Compound 27, salicifoliol] | > 100 |  |  | 
36.71 ± 0.33 |  | 21.8 ± 0.26 | COc1cc(-c2oc3cc(O)cc(O)c3c(=O)c2O[C@@H]2O[C@H](CO)[C@@H](O)[C@H](O)[C@H]2O)ccc1O [Compound 11, isorhamnetin-3-O-β-D-glucoside] | > 100 |  |  | 
> 100 | 30 ± 0.57 | > 100 | COc1cc(O)c2c(c1)C(=O)c1cc(C)cc(O)c1C2=O [Compound 45, physcion] |  | 24.75 ± 0.18 |  | 
40.63 ± 0.23 | 46.2 ± 0.67 | 96.4 ± 2.26 | COc1cc([C@@H](O)[C@H](CO)Oc2ccc([C@@H]3OC[C@@H]4[C@H]3CO[C@H]4c3ccc(O)c(OC)c3)cc2OC)ccc1O [Compound 32] | 5.71 ± 0.17 | 81.93 ± 0.78 |  | 
54.67 ± 0.34 | 43.6 ± 0.9 | > 100 | COc1cc([C@H](O)[C@H](CO)Oc2ccc(CCCO)cc2OC)ccc1O [Compound 19, threo-(7S,8S)-guaiacyl-glycerol-β-O-4′-dihydroconiferyl ether] | 58.37 ± 0.44 | 95.63 ± 0.47 |  | 
76.06 ± 0.48 |  | > 100 | COc1ccc(C(=O)O)cc1O [Compound 41, isovanillic acid] |  | 91.1 ± 0.38 |  | 
88.32 ± 0.12 |  | > 100 | COc1cc(C(=O)O)ccc1O [Compound 37, vanillic acid] |  |  |  | 
23.7 ± 0.25 | 48.98 ± 0.39 | 65.4 ± 1.48 | COc1cc([C@H]2OC[C@H]3[C@@H]2CO[C@@H]3c2cc(OC)c(O)c(OC)c2)cc(OC)c1O [Compound 31, (+)-syringaresinol] | 49.1 ± 1.1 |  |  | 

Compound | IC50 [2] [µM] | IC50 [3, 5] [µM] | IC50 [4] [µM] | IC50 [1] [µM] | IC50 (PTP1B) [µM] | IC50 ([3]; Mus musculus, RAW264.7, read-out: IC50 NO production anti-inflammatory effect) [µM] | IC50 ([3]; LPS (1 μg/mL)-stimulated RAW 264.7 cells, mean ± SD, n = 3, read-out: IC50 NO production anti-inflammatory effect) [µM]
O=C(O)c1ccc(O)c(O)c1 [Compound 38, protocatechuic acid] | 63.25 ± 0.51 |  | 33.1 ± 0.79 |  | 44.75 ± 0.12 |  | 
COc1cc(-c2cc(=O)c3c(O)cc(O[C@@H]4O[C@H](CO)[C@@H](O)[C@H](O)[C@H]4O)cc3o2)cc(OC)c1O [Compound 10, tricin-7-O-β-D-glucoside] | 91.1 ± 1.1 |  | > 100 | > 100 |  | 65.8 ± 1.47 | 
O=c1cc(-c2ccc(O)cc2)oc2c([C@@H]3O[C@H](CO)[C@@H](O)[C@H](O)[C@H]3O)c(O)cc(O)c12 [Compound 9, vitexin] | 85.04 ± 0.24 |  | 92.26 ± 0.32 | 98.6 ± 1.2 | 30.6 ± 0.48 |  | 
Oc1cc(O)c2c(c1)O[C@H](c1ccc(O)c(O)c1)[C@@H](O)C2 [Compound 3, (+)-catechin] | 11.29 ± 0.09 |  | 26.4 ± 0.39 | 89 ± 1.95 | 91.78 ± 0.68 |  | 
C[C@@H]1O[C@@H](O[C@H]2C(=O)c3c(O)cc(O)cc3O[C@@H]2c2ccc(O)c(O)c2)[C@H](O)[C@H](O)[C@H]1O [Compound 12, astilbin] | 43.1 ± 0.29 |  | 46.46 ± 0.4 | > 100 | > 100 |  | 
Oc1cc(O)c2c(c1)O[C@H](c1ccc(O)c(O)c1)[C@H](O)C2 [Compound 4, (-)-epicatechin] | 13.46 ± 0.09 |  | 32 ± 0.37 | 24 ± 0.38 | 38.66 ± 0.21 |  | 
(+)-pinoresinol [Compound 29] | 18.49 ± 0.09 |  | 77.4 ± 2.98 | 52.1 ± 0.93 |  |  | 69.94 ± 0.31
